Assay results from patent US10053487B2, “Neuroactive 19-alkoxy-17(20)-Z-vinylcyano-substituted steroids, prodrugs thereof, and methods of treatment using same” (priority 2012, dated 2018).
Where two headings read alike, the source gives them in different places.

What was measured:
[1] = biological target: T1, rat α1β2γ2L type GABAA receptors expressed in Xenopus laevis oocytes (Rattus norvegicus, UniProt P62813+P63138); assay: Oocyte electrophysiology: potentiation of chloride currents mediated by 2 μM GABA, and direct gating; format: cell-based; conditions: ± SEM, N≥4; for Ratio of currents measured in the presence/absence of added compound, 0.1 μM: 0.1 μM compound; for Ratio of currents measured in the presence/absence of added compound, 0.1 μM / Ratio of currents measured in the presence/absence of added compound, 1 μM / Ratio of currents measured in the presence/absence of added compound, 10 μM: 2 μM GABA; for Ratio of currents measured in the presence/absence of added compound, 1 μM: 1 μM compound; for Ratio of currents measured in the presence/absence of added compound, 10 μM: 10 μM compound; for (gating) 10 μM: ratio of compound only current/2 μM GABA current: direct current gated by 10 μM compound in the absence of GABA
T1 construct: expressed in transfected cells; host or cells: Xenopus laevis oocytes
Procedure: The compounds of the present disclosure were evaluated for the ability to potentiate chloride currents mediated by 2 μM GABA at rat α1β2γ2L type GABAA receptors expressed in Xenopus laevis oocytes and the results are shown in Table 2.
The potentiation of 2 μM GABA-mediated chloride currents at rat α1β2γ2-type GABAA receptors expressed in frog oocytes by different concentrations of Compound 1, is illustrated by the curves in FIG. 2, as well. ^aThe GABA concentration used for the control response was 2 μM. Each compound was evaluated on at least four different oocytes at the concentrations indicated, and the results reported are the ratio of currents measured in the presence/absence of added compound. Gating represents direct current gated by 10 μM compound in the absence of GABA, and this current is reported as the ratio of compound only current/2 μM GABA current. Error limits are calculated as standard error of the mean (N≥4). Methods used are known in the art (see, e.g., E. Stastna, et al., Neurosteroid Analogues. 16. A New Explanation for the Lack of Anesthetic Effects in Δ^16-Alphaxalone and Identification of a Δ^17(20) Analogue with Potent Anesthetic Activity, J. Med. Chem., 54(11), pp. 3926-34 (2011)).

[2] = biological target: T2, GABAA receptors (picrotoxin binding site); assay: [35S]-TBPS displacement (non-competitive displacement from the picrotoxin binding site); conditions: duplicate experiments performed in triplicate; ± SEM; read-out: Inhibition of [35S]-TBPS binding, IC50
T2 construct: other: duplicate experiments performed in triplicate; ± SEM; other: Hill coefficient
Procedure: (§1) The IC50 values for the compounds of Scheme 1 (i.e., Compounds 1 and 2) as non-competitive displacers of [^35S]-TBPS from the picrotoxin binding site on GABAA receptors are reported in Table 1.
(§2) Results presented are from duplicate experiments performed in triplicate. Error limits are calculated as standard error of the mean. Methods used are known in the art (see, e.g., E. Stastna, et al., Neurosteroid Analogues. 16. A New Explanation for the Lack of Anesthetic Effects in Δ^16-Alphaxalone and Identification of a Δ^17(20) Analogue with Potent Anesthetic Activity, J. Med. Chem., 54(11), pp. 3926-34 (2011)).

[3] = tested on: tadpoles; assay: Tadpole loss of righting reflex (LRR) and loss of swimming reflex (LSR); format: in vivo; conditions: ± SEM
Text: Table 3 discloses the anesthetic effects of the compounds of the present disclosure. In particular, the anesthetic effect of the compounds of the present disclosure on Loss of Righting Reflex (LRR) and Loss of Swimming Reflex (LSR).
A quantal dose-response curve for loss of righting reflect (LRR) and loss of swimming reflex (LSR) caused by Compound 1 in tadpoles, is illustrated in FIG. 3, as well. ^aMethods used are known in the art (see, e.g., E. Stastna, et al., Neurosteroid Analogues. 16. A New Explanation for the Lack of Anesthetic Effects in Δ^16-Alphaxalone and Identification of a Δ^17(20) Analogue with Potent Anesthetic Activity, J. Med. Chem., 54(11), pp. 3926-34 (2011)). Error limits are calculated as standard error of the mean (N=10 or more animals at each of five or more different concentrations).

[4] = tested on: GABAA receptors (picrotoxin binding site); assay: [35S]-TBPS displacement (non-competitive displacement from the picrotoxin binding site)
Procedure: as §1, §2

[5] = tested on: GABAA receptors; conditions: background statement; cited from earlier work
[6] = loss of righting reflex, read-out: Tadpole LRR EC50
[7] = loss of swimming reflex, read-out: Tadpole LSR EC50
[8] = [35S]-TBPS displacement, hydrogenated Δ17(20) double bond

T1 sequence (P62813 28-455): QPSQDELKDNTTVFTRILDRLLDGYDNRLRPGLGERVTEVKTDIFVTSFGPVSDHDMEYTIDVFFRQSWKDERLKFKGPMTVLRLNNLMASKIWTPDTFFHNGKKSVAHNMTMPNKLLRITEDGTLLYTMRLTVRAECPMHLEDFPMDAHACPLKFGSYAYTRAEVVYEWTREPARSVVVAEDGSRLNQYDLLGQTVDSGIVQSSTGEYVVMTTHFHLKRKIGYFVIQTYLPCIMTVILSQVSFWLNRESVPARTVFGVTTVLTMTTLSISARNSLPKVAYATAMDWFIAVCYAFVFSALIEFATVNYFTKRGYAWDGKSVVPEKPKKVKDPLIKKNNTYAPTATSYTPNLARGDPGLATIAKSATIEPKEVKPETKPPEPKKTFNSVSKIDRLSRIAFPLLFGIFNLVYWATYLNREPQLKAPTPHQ
T1 sequence (P63138 26-474): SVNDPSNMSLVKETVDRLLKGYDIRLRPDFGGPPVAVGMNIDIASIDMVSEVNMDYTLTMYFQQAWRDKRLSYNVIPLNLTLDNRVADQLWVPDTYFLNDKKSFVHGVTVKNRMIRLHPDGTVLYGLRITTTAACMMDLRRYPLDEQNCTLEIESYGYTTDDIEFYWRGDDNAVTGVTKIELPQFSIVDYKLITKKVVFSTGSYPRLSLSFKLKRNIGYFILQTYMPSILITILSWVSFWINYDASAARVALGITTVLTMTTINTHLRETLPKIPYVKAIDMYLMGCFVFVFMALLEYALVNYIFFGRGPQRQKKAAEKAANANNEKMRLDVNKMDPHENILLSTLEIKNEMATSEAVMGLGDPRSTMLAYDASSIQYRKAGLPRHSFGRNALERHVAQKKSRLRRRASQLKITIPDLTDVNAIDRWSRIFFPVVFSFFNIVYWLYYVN
T1 sequence (P18508 other isoform, or with tags, fused parts or gaps INS375LLRMFSFK, further chain): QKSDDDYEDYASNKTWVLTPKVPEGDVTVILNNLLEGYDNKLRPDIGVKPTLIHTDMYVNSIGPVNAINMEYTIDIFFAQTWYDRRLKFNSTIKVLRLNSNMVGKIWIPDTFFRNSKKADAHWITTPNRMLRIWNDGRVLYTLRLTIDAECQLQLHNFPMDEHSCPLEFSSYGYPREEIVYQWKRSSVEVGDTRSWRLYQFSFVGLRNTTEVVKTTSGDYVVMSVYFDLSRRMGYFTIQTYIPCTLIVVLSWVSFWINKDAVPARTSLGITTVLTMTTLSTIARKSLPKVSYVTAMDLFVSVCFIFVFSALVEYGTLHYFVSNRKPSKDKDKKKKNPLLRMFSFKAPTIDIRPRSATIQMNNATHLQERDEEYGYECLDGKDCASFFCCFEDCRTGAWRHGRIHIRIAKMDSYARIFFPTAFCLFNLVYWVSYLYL

Row | SMILES | melting point [°C] | Ratio of currents measured in the presence/absence of added compound, 0.1 μM [1] | Ratio of currents measured in the presence/absence of added compound, 1 μM [1] | Ratio of currents measured in the presence/absence of added compound, 10 μM [1] | (gating) 10 μM: ratio of compound only current/2 μM GABA current [1] | IC50 [2] [nM] | EC50 [3, 6] [nM] | EC50 [3, 7] [nM] | also measured
1 | COC[C@]12CC[C@@H](O)C[C@@H]1CC[C@@H]1[C@@H]2CC[C@]2(C)/C(=C\C#N)CC[C@@H]12 [Compound 1, [3α,5α,17(20)Z]-19-methoxypregn-17(20)-ene-21-nitrile] | 166 to 168 | 2.88 ± 0.90 | 15.27 ± 2.58 | 45.80 ± 15.79 | 0.19 ± 0.08 | 42 ± 4 | 159 ± 25 | 970 ± 65 | –
2 | COC[C@]12CC[C@@H](O)C[C@@H]1CC[C@@H]1[C@@H]2CC[C@]2(C)/C(=C/C#N)CC[C@@H]12 [Compound 2, [3α,5α,17(20)E]-19-methoxypregn-17(20)-ene-21-nitrile] | 185 to 188 | 0.69 ± 0.11 | 1.26 ± 0.22 | 2.97 ± 0.33 | 0.31 ± 0.25 | 657 ± 114 | 2780 ± 560 | ~10000 | –
3 | C[C@]12CC[C@@H](O)C[C@@H]1CC[C@H]1[C@@H]3CC[C@H](CC#N)[C@@]3(C)CC(=O)[C@@H]12 [Compound 5c] | – | – | – | – | – | – | – | – | Fold decrease of IC50 value relative to Compound 6b [4, 8]: about twofold; Fold increase of IC50 value relative to Compound 6a [4, 8]: about eight-fold
4 | C[C@]12CC[C@@H](O)C[C@@H]1CC[C@@H]1[C@@H]2C(=O)C[C@]2(C)/C(=C\C#N)CC[C@@H]12 [Compound 6a] | – | – | – | – | – | – | – | – | Fold more potent at displacing [35S]-TBPS than the E isomer ([4]; Z isomer versus E isomer (Compound 6a versus Compound 6b)): about 17 fold
5 | CC(=O)C1=CC[C@H]2[C@@H]3CC[C@H]4C[C@H](O)CC[C@]4(C)[C@H]3C(=O)C[C@]12C [Δ^16-alphaxalone] | – | – | – | – | – | – | – | – | Allosteric activity at GABAA receptors, in contrast to alphaxalone [5]: greatly diminished allosteric activity
